Here are results for 25 compounds from US8895559B2, “Quinoxalines derivatives and pharmaceutical compositions and kits” (Merck Patent GmbH, priority 2010, dated 2014).

Assay [1] concerns phospholipases. The following applies: cited from earlier work.
Assay [2] relates to neutrophils. The following applies: cited from earlier work.
In assay [3] the target is CK2 protein kinase (Homo sapiens, UniProt P68400). The following applies: cited from earlier work.
Assay [4] relates to neutrophils. The following applies: treatment of neutrophils; Thelen et al. 1994; cited from earlier work.
Assay [5] deals with PI3K. The experiment in a line: Cellular testing of PI3K inhibitors: P-S473-PKB Luminex assay in PC3 cells. It counts as cell-based. On the procedure: Description of the Method for the Cellular Testing of PI3K Inhibitors
The cellular assay for determination of the P-S473-PKB level is carried out as a Luminex assay in 96-well format in PC3 cells.
PC3 cells are sown out with 20,000 cells per well in 100 μl medium (45% RPMI1460/45% Ham's F12/10% FCS) and incubated on the following day for 30 min with a serial dilution of the test substance (7 concentrations) under serum-free conditions. […] The lysates are incubated overnight at 4° C. with shaking with Luminex beads to which an anti-total PKB antibody is coupled. The detection is carried out on the following day by addition of a P-S473-PKB antibody and a species-specific PE-labelled secondary antibody. The detection of P-S473-PKB is carried out by measurement in a Luminex 100 instrument by determination of 100 events per cavity in a measurement time of 60 sec. […] The values of the preparations treated with test substance are calculated from this as percent of control, and IC50 values are determined by means of RS1.

Where [6] appears, read: PI3K-dependent phosphorylation of PKB at Serin 473 in PC3 cells.

Some results are limits rather than exact numbers.

Sequence of CK2 protein kinase (P68400 whole entry): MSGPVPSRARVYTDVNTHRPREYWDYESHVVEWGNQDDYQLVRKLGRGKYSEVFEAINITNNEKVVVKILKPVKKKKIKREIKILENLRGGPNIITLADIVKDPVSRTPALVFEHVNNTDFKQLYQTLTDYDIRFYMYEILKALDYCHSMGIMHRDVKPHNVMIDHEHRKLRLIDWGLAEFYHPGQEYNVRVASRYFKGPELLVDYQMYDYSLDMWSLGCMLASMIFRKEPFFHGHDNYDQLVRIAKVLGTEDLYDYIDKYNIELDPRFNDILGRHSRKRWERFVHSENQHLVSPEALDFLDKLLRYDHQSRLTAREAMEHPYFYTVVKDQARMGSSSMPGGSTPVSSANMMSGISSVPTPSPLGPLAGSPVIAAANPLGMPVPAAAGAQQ

For the compound `O=c1cc(N2CCOCC2)oc2c(-c3ccccc3)cccc12` [LY294002], the “inhibitory activity on phospholipases” value in assay [1] is reported as “slight inhibitory activity”. For the same compound, in assay [2], the neutrophil migration entry is “block” and the superoxide release entry was “block”. Besides, the IC50 (commonly the point on the concentration scale where inhibition reaches its midpoint) in assay [3] is 5000 to 10000 nM.

As for `COC[C@H]1OC(=O)c2coc3c2[C@@]1(C)C1=C(C3=O)[C@@H]2CCC(=O)[C@@]2(C)C[C@H]1OC(C)=O` [wortmannin], in assay [2], the neutrophil migration result was “block” and the superoxide release entry is “block”. Further, the “fMLP-induced respiratory burst response” value in assay [4] is reported as “prevents”.

In the case of `COc1cc(Nc2nc3ccccc3nc2NS(=O)(=O)c2cnn(CCN(C)C)c2)c(OCCCO)c(OC)c1` [Compound A23, 1-(2-Dimethylamino-ethyl)-1H-pyrazole-4-sulfonic acid {3-[2-(3-hydroxypropoxy)-3,5-dimethoxy-phenylamino]quinoxalin-2-yl} amide], in assay [5] (PI3 kinase inhibition, cell), the IC50 is 100 to 10000 nM.

Regarding `COc1cc(Nc2nc3ccccc3nc2NS(=O)(=O)c2cccnc2)c(OCCN(C)CCO)c(OC)c1` [Compound A68], in assay [5] (PI3 kinase inhibition, cell), the IC50 was 100 to 10000 nM.

Compound `COc1cc(Nc2nc3ccccc3nc2NS(=O)(=O)c2cncs2)c(OCCC(C)O)c(OC)c1` (stereo not drawn) [Compound A101] returned an IC50 in assay [5] (PI3 kinase inhibition, cell) of 1 to 100 nM.

`COc1cc(Nc2nc3ccccc3nc2NS(=O)(=O)c2cn(C)cn2)c(OCCS(C)(=O)=O)c(OC)c1` [drawing 161] gave a 50% inhibitory concentration (IC50) in assay [5] (setting [6]) of 86 nM.

On to `COc1cc(Nc2nc3ccccc3nc2NS(=O)(=O)c2ccn(C)n2)c(CCCCO)c(OC)c1` [Compound A117], for which the IC50 in assay [5] (PI3 kinase inhibition, cell) is 1 to 100 nM.

For the compound `COc1cc(Nc2nc3ccccc3nc2NS(C)(=O)=O)c(OCCC(C)O)c(OC)c1` (stereo not drawn) [drawing 155], 38 nM corresponded to half-maximal inhibition in assay [5] (setting [6]) (IC50).

`COc1cc(Nc2nc3ccccc3nc2NS(=O)(=O)c2cn(C)cn2)c(OCC(C)CO)c(OC)c1` (stereo not drawn) [Compound A32] returned an IC50 in assay [5] (PI3 kinase inhibition, cell) of 100 to 10000 nM.

`COc1cc(Nc2nc3ccccc3nc2NS(=O)(=O)c2ccc(C#N)cc2)c(OCC[S+]([O-])CCO)c(OC)c1` (stereo not drawn) [Compound A72] displayed an IC50 in assay [5] (PI3 kinase inhibition, cell) of 1 to 100 nM.

As to `COc1cc(Nc2nc3ccccc3nc2NS(=O)(=O)C(F)F)c(OCCC(C)O)c(OC)c1` (stereo not drawn) [Compound A115], the IC50 in assay [5] (PI3 kinase inhibition, cell) fell in the range of 1 to 100 nM.

Consider `COc1cc(Nc2nc3ccccc3nc2NS(=O)(=O)c2ccc(F)c(F)c2)c(OCCOCCO)c(OC)c1` [Compound A73], for which the IC50 in assay [5] (PI3 kinase inhibition, cell) lay in the range of 100 to 10000 nM.

In assay [5] (PI3 kinase inhibition, cell), `COc1cc(Nc2nc3ccccc3nc2NS(=O)(=O)c2ccc(F)cc2)c(OCCOCCO)c(OC)c1` [Compound A53] registered an IC50 of 1 to 100 nM.

For `COc1cc(Nc2nc3ccccc3nc2NS(=O)(=O)c2ccc(C#N)s2)c(OCCCO)c(OC)c1` [Compound A51], in assay [5] (PI3 kinase inhibition, cell), the IC50 is 1 to 100 nM.

In assay [5] (PI3 kinase inhibition, cell), `COc1cc(Nc2nc3ccccc3nc2NS(=O)(=O)c2ccc(C#N)cc2)c(OCCS(=O)(=O)CCO)c(OC)c1` [Compound A76] came in with an IC50 of 1 to 100 nM.

For `COc1ccc(CCO)c(Nc2nc3ccccc3nc2NS(=O)(=O)c2ccc(F)cc2)c1` [reference compound], in assay [5] (setting [6]), the IC50 was determined as 290 nM.

For the compound `COc1cc(Nc2nc3ccccc3nc2NS(=O)(=O)c2cn(C)cn2)c2occc2c1` [Compound A16, 1-Methyl-1H-imidazole-4-sulfonic acid [3-(5-methoxybenzofuran-7-ylamino)quinoxalin-2-yl]amide], the IC50 in assay [5] (PI3 kinase inhibition, cell) was above 10000 nM.

As to `COc1cc(Nc2nc3ccccc3nc2NS(=O)(=O)c2ccc(CN3CC(F)(F)C3)cc2)c(OCCCO)c(OC)c1` [Compound A110, 4-(3,3-Difluoroazetidin-1-ylmethyl)-N-{3-[2-(3-hydroxypropoxy)-3,5-dimethoxyphenylamino]-quinoxalin-2-yl}benzenesulfonamide], the IC50 in assay [5] (PI3 kinase inhibition, cell) fell in the range of 1 to 100 nM.

In assay [5] (PI3 kinase inhibition, cell), `COc1cc(Nc2nc3ccccc3nc2NS(=O)(=O)c2ccc(CNC(C)=O)cc2)c(OCCCO)c(OC)c1` [Compound A132, N-(4-{3-[2-(3-hydroxypropoxy)-3,5-dimethoxyphenylamino]quinoxalin-2-ylsulfamoyl}benzyl)acetamide] displayed an IC50 of 1 to 100 nM.

`COCCOCCOc1c(Nc2nc3ccccc3nc2NS(=O)(=O)c2ccc(C#N)cc2)cc(OC)cc1OC` [Compound A48] had an IC50 in assay [5] (PI3 kinase inhibition, cell) of 1 to 100 nM.

Turning to `COc1cc(Nc2nc3ccccc3nc2NS(=O)(=O)c2cn(C)c(CN(C)C)n2)c(OCCCO)c(OC)c1` [Compound A33], the IC50 in assay [5] (PI3 kinase inhibition, cell) is 100 to 10000 nM.

In assay [5] (setting [6]), `COc1ccc(CCO)c(Nc2nc3ccccc3nc2NS(C)(=O)=O)c1` [reference compound] registered an IC50 of 4900 nM.

With `COc1ccc(CCCS(C)(=O)=O)c(Nc2nc3ccccc3nc2NS(=O)(=O)c2cn(C)cn2)c1` [reference compound], half-maximal inhibition in assay [5] (setting [6]) (IC50) required 2600 nM.

Take `COc1cc(Nc2nc3ccccc3nc2NS(=O)(=O)c2ccn(CC(=O)N(C)C)n2)c(OCCC(C)O)c(OC)c1` (stereo not drawn) [Compound A120]: the IC50 in assay [5] (PI3 kinase inhibition, cell) is 1 to 100 nM.

For the compound `COc1cc(Nc2nc3ccccc3nc2NS(=O)(=O)C(F)(F)F)c(OCCOCCO)c(OC)c1` [Compound A49], the IC50 in assay [5] (PI3 kinase inhibition, cell) lay in the range of 1 to 100 nM.
